Data reported in PMC9197883, “Treatment with Polyethylene Glycol–Conjugated Fungal D-Amino Acid Oxidase Reduces Lung Inflammation in a Mouse Model of Chronic Granulomatous Disease” (Inflammation, 2022).

Key:
fDAO / PEG-fDAO = system: T1, fDAO / PEG-fDAO; experiment: HRP-coupled o-dianisidine assay of H2O2 formation, nonlinear fit; format: biochemical; conditions: pH 6.5; 25 °C; enzyme form not stated beside the value, most likely PEG-conjugated (PEG-fDAO)
T1 construct: gene DAO; DAO from Fusarium spp. supplied by Ikeda Food Research; tetramer 165 kDa; PEG conjugate (five PEG chains, succinimide-PEG ME-020CS) 206 kDa

[1] = biological target: D-amino acid oxidase isolated from Fusarium spp. (Fusarium spp.) (UniProt P24552); experiment: not stated; fDAO in 'the physiological solution used for testing'; how the oligomeric state was found is not told

Row | Compound | Km (fDAO / PEG-fDAO) [µM] | stoichiometry N [1]
1 | N[C@H](Cc1ccccc1)C(=O)O [D-phenylalanine] | 220 | 
2 | D-amino acid oxidase isolated from Fusarium spp. (from UniProt P24552 23-361) (enzyme) |  | 4
